From EP2386565A2, “Compounds and methods to inhibit or augment an inflammatory response” (Cambridge Enterprise Ltd., priority 1999, dated 2000)
Values joined by “and” are separate entries in the source; they are usually repeats but may differ in a detail not shown here. Equal entries are not always repeated. “Also recorded” adds a separate entry of the source. Positions of bridges follow the written chain, without caps; N, C: chain ends. Non-standard residues stand in square brackets, D forms with d. Residues, ends and D or L forms follow the SMILES beside them.

Key:
[1] = tested on: ovalbumin-induced pulmonary inflammation, IgE, IL-4 and recall responses; assay: Ovalbumin-induced asthma / hypersensitivity model; type: in vivo, mice; design: Total IgE (Serum), individual mice m1-m4 / Total IgE (Serum), Avg.: unit not given here; settings: for ng/ml IgE (4X avg.): serum; for splenocyte recall response to OVA (in words): versus positive controls
Experimental: A third study assessed the efficacy of daily dosing with CRD-Leu4Ile11Cys13 peptide 3(3-12)[MCP-1] to reduce OVA-induced pulmonary inflammation. Mice were sensitized with 0.1 mg of ovalbumin or PBS (diluent control) intraperitoneally in the absence of the test agent. […] These treatments were given daily from day 8 through day 21. On day 8, thirty minutes following treatment, mice were challenged intratracheally with 1% ovalbumin or PBS. On days 15, 18, and 21, thirty minutes following treatment, mice were challenged intratracheally with 2% ovalbumin or PBS. Mice were sacrificed 3 hours post-ovalbumin challenge, on day 21. Lungs were collected for histopathology, and for isolation of cells for total cell counts and FACS analysis. Bronchalveolar lavage (BAL) was collected for eicosinoid levels. Serum was collected for IgE and IL-4 levels. Spleens were collected for cytokine recall responses. […]

D2s dopamine receptors = molecular target: T1, D2s dopamine receptors (Homo sapiens, UniProt P14416); assay: Competition of 3H-spiperone binding to membranes; settings: 100 µM highest concentration tested
T1 construct: purchased RBI/Sigma D-179; host or cells: membranes
Experimental: For dopamine receptor binding, membranes (D-179, RBI/Sigma) are diluted into binding buffer (75 mM Tris pH 7.4, 12.5 mM MgCl2 and 2 mM EDTA). For example, 10 µl of membranes are diluted in 500 µl of binding buffer (i.e., 1:50 dilution), which is aliquoted into labelled tubes. Cold competitor or test competitor is added, (e.g., 5 µl of 100x stock solution; 5 µl of 1 mM haloperidol solution (H-100, RBI/Sigma in DMSO). Radioligand is then added (^3H-Spiperone, TRK 818, Amersham, 250 µCi in 250 µl, 10.5 µM at 95 Ci/mmol). For competition studies, 0.5 nM is used. A 100x stock (i.e., 50 nM) is made by diluting the commercial stock 1:210 in binding buffer, and 5 µl is added to every tube. Control tubes have radioligand but no membranes. The mixtures are vortexed, then spun very briefly. The mixtures are then incubated for 1 hour at 27°C in a water bath. The mixture is filtered through GF/C filters over a vacuum. Each filter is pre-soaked in polyethyleneimine (0.3% in water; add 1 ml of 10% stock (P-261; RBI/Sigma) to 33 ml of MilliQ water). The tubes are washed with 2-3 ml of wash buffer (50 mM Tris pH 7.4) and the wash filtered. The filters are then rinsed with 3 × 5 ml of wash buffer, air dried, placed in a scintillation vial and 4.5 ml of scintillant added. The activity on the filter is then determined.

[2] = Group 5: Ova on days 8, 15, 18, 21, treat BID 14 days, sacrifice day 34 (No recent Ova challenge), 0 µg/ml Ova
[3] = Group 5: PBS on days 8, 15, 18, 21, treat BID 14 days, sacrifice day 34 (No recent Ova challenge), 0 µg/ml Ova

T1 sequence (P14416 1-414 isoform P14416-2): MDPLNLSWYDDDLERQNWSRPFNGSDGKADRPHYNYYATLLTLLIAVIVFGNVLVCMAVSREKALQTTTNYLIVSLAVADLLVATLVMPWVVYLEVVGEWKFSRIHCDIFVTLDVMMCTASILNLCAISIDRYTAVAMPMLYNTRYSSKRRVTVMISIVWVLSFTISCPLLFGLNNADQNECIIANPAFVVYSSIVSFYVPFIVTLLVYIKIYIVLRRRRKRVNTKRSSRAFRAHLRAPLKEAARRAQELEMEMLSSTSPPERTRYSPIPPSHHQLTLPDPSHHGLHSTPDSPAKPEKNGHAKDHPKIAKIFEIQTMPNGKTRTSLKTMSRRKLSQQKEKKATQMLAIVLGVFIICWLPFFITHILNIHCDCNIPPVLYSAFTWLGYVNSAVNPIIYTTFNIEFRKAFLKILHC

CC[C@@H](C)[C@H]1NC(=O)[C@@H](CCC(N)=O)NC(=O)[C@H](N)CSSC[C@H](C(N)=O)NC(=O)[C@@H](CC(C)C)NC(=O)[C@@H](CC(=O)O)NC(=O)[C@H]2CCCN2C(=O)[C@@H](CCCCN)NC(=O)[C@@H](CCC(N)=O)NC(=O)[C@@H](CCCCN)NC(=O)[C@@H](Cc2c[nH]c3ccccc23)NC1=O (H-[dC][dQ][dI][dW][dK][dQ][dK][dP][dD][dL][dC]-NH2; disulfide 1-11)
IL-4 Assays, pg/ml IL-4, individual mice m1-m4 ([1]; Group 4, 50 µg/ml Ova): 14.38 pg/mL and 22.08 pg/mL and 10.25 pg/mL and 11.09 pg/mL
Total IgE (1 week splenocyte cultures) ([1]; Group 4, 50 µg/ml Ova): 0.082 ng/mL
Total IgE (1 week splenocyte cultures), Avg. ([1]; Group 4, 50 µg/ml Ova): 0.021
Total IgM + IgG (1 week splenocyte cultures), Avg. ([1]; Group 4, 50 µg/ml Ova): 416.86
Total IgE (1 week splenocyte cultures), individual mice m1-m4 ([1]; Group 4, 50 µg/ml Ova, listed as CRD-Leu4Ile11Cys13peptide 3(3-12)[MCP-1]): 0.013 and 0.043 and 0.008 and 0.018
Total IgM + IgG (1 week splenocyte cultures), individual mice m1-m4 ([1]; Group 4, 50 µg/ml Ova, listed as CRD-Leu4Ile11Cys13 peptide 3(3-12)[MCP]): 338.50 and 679.86 and 487.87 and 161.20
ng/ml IgE (4X avg.) ([1]; Group 4): 2.482 ng/mL
Total IgE (Serum), Avg. ([1]; Group 5): 1.102
Total IgE (1 week splenocyte cultures), individual mice m1-m4 ([1]; Group 5 (No recent Ova challenge), 0 µg/ml Ova): 0.008 and 0.033 and 0.000 and 0.024
Total IgE (Serum), individual mice m1-m4 ([1]; Group 5 (treated 14 days, no recent Ova challenge)): 0.625 and 1.870 and 0.838 and 1.073
IL-4 Assays, pg/ml IL-4, Avg. of Group [1, 2]: 8.05 pg/mL
IL-4 Assays, pg/ml IL-4, individual mice m1-m4 [1, 2]: 9.09 pg/mL and 3.80 pg/mL and 12.89 pg/mL and 6.42 pg/mL
Total IgM + IgG (1 week splenocyte cultures), Avg. [1, 3]: 20.05
Total IgM + IgG (1 week splenocyte cultures), individual mice m1-m4 [1, 3]: 26.54 and 15.44 and 21.35 and 16.89
Total IgE (1 week splenocyte cultures) ([1]; Group 5, 0 µg/ml Ova): 0.065 ng/mL
Total IgE (1 week splenocyte cultures), Avg. ([1]; Group 5, 0 µg/ml Ova): 0.016
IL-4 Assays, pg/ml IL-4, Avg. of Group ([1]; Group 5, 5 µg/ml Ova): 6.33 pg/mL
IL-4 Assays, pg/ml IL-4, individual mice m1-m4 ([1]; Group 5, 5 µg/ml Ova): 5.70 pg/mL and 4.43 pg/mL and 10.09 pg/mL and 5.10 pg/mL
Total IgE (1 week splenocyte cultures) ([1]; Group 5, 5 µg/ml Ova): 0.082 ng/mL
Total IgE (1 week splenocyte cultures), Avg. ([1]; Group 5, 5 µg/ml Ova): 0.021
Total IgE (1 week splenocyte cultures), individual mice m1-m4 ([1]; Group 5, 5 µg/ml Ova): 0.003 and 0.065 and 0.000 and 0.014
Total IgM + IgG (1 week splenocyte cultures), Avg. ([1]; Group 5, 5 µg/ml Ova): 53.22
Total IgM + IgG (1 week splenocyte cultures), individual mice m1-m4 ([1]; Group 5, 5 µg/ml Ova): 64.20 and 31.21 and 67.94 and 49.53
IL-4 Assays, pg/ml IL-4, Avg. of Group ([1]; Group 5, 50 µg/ml Ova): 5.61 pg/mL
IL-4 Assays, pg/ml IL-4, individual mice m1-m4 ([1]; Group 5, 50 µg/ml Ova): 7.02 pg/mL and 6.10 pg/mL and 4.74 pg/mL and 4.59 pg/mL
Total IgE (1 week splenocyte cultures) ([1]; Group 5, 50 µg/ml Ova): 0.021 ng/mL
Total IgE (1 week splenocyte cultures), Avg. ([1]; Group 5, 50 µg/ml Ova): 0.005
Total IgE (1 week splenocyte cultures), individual mice m1-m4 ([1]; Group 5, 50 µg/ml Ova): 0.000 (2×) and 0.020 and 0.001
Total IgM + IgG (1 week splenocyte cultures), Avg. ([1]; Group 5, 50 µg/ml Ova): 111.41
Total IgM + IgG (1 week splenocyte cultures), individual mice m1-m4 ([1]; Group 5, 50 µg/ml Ova): 86.16 and 80.04 and 189.70 and 89.74
ng/ml IgE (4X avg.) ([1]; Group 5): 4.406 ng/mL
inflammatory infiltrates in the lung, histology (in words) ([1]; first study, high dose): minimal to no inflammatory infiltrates
reduction in IL-4 ([1]; second study, dose-dependent): 85%
reduction in macrophages ([1]; second study, dose-dependent): 74%
reduction in total cells in the lung ([1]; second study, dose-dependent): approximately 50%
reduction in IgE ([1]; second study, s.c. 10.3 µg-1.03 mg before OVA challenges, dose-dependent): 60%
cells in the lungs, total counts / FACS (in words) ([1]; versus PBS + OVA positive controls, study and dose as in the block): significantly lower numbers of CD3, CD4, B220, and Mac-1 cells; also recorded: significantly lower percentages of macrophages; also recorded: significantly lower numbers of macrophages, B cells, and CD4+ T cells; also recorded: no significant reduction of total cells in the lungs
IgE levels (in words) ([1]; versus PBS + OVA positive controls, study as in the block): not detectable above background; also recorded: significantly lower; also recorded: significantly reduced; also recorded: reduced levels of serum IgE
splenocyte recall response to OVA (in words) ([1]; study as in the block): reduced levels of IL-4, IgE, and total IgG and IgM
splenocyte recall response to OVA (in words) ([1]; study as in the block, listed as CRD-Leu4Ile11Cys13peptide 3(3-12)[MCP-1]): significantly less IL-4
ED50 for competition of spiperone binding to short splice variant D2 dopamine receptor (D2s dopamine receptors): >100 µM
